From patent US11878986B2, “Poly heterocyclic conjugates and their pharmaceutical uses” (National Health Research Institutes, priority 2020, dated 2024)

System: human pancreatic cancer cells (MIA PaCa-2)
Assay: Tumor growth inhibition in subcutaneous xenograft model, MIA PaCa-2
Type: in vivo, mouse
Settings: s.c. xenograft in athymic nude mice; i.v. 1-5 mg/kg, once/week or twice/week for 1-3 weeks; vs vehicle control, p<0.05; FIG. 1
Description: The efficacy of compounds 2 and 11 in inhibiting the growth of human pancreatic cancer cells (MIA PaCa-2) and the efficacy of compounds 1-4, 23, 25, and 26 in inhibiting the growth of human triple-negative breast cancer cells (HCC1806) were assessed as follows.
Male and female athymic NU-Fox1^nu nude mice (BioLASCO, Taiwan) at age 4-5 weeks were housed in sterilized cages equipped with an air filter and sterile bedding materials at the Laboratory Animal Center of the National Health Research Institutes (NHRI), which is an AAALAC International accredited facility. All the mice were fed with sterilized water and chow ad libitum under 12-hr light/12-hr dark cycle throughout the study. […]
The MIA PaCa-2 and HCC1806 cells were suspended in phenol-red-free culture medium/Matrigel™ (1/1) and implanted subcutaneously (s.c.) into the left flank of the nude mice (1×10^6 cells/flank) via a 1 mL syringe. Tumor dimensions were measured twice a week using a digital caliper and the tumor volume (mm^3) was calculated based on the formula, i.e., volume=(length×width^2)/2.
Tumor-bearing mice were randomized (n=7-8 per group) when the average tumor volume reached approximately 200 mm^3. […] Tumor size and body weight of each animal were measured twice a week. Data was expressed as the mean or mean±standard error of the mean (SEM). […]

SMILES | inhibition of the growth of MIA PaCa-2 (tumor volume)
CCCCCC(=O)Nc1cccc(CN(Cc2cc(CN(Cc3ccccn3)Cc3cccc(NC(=O)CCCCC)n3)cc(OCCCCN(Cc3ccc(-c4ccccc4)cc3)C(=O)COCCOCCOCC(=O)NCc3ccc(CNC(=O)CCSSCCC(=O)N(C)[C@H](C)C(=O)O[C@@H]4CC(=O)N(C)c5cc(cc(OC)c5Cl)C/C(C)=C/C=C/[C@H](OC)[C@]5(O)C[C@@H](OC(=O)N5)[C@H](C)[C@H]5O[C@]54C)cc3)c2)Cc2ccccn2)n1 [Compound 2] | significantly inhibited the growth
CCCCCC(=O)Nc1cccc(CN(Cc2cc(CN(Cc3ccccn3)Cc3cccc(NC(=O)CCCCC)n3)cc(OCCCCNC(=O)COCCOCCOCC(=O)NCc3ccc(CNC(=O)CCSSCCC(=O)N(C)[C@H](C)C(=O)O[C@@H]4CC(=O)N(C)c5cc(cc(OC)c5Cl)C/C(C)=C/C=C/[C@H](OC)[C@]5(O)C[C@H](OC(=O)N5)[C@H](C)C5O[C@@]54C)cc3)c2)Cc2ccccn2)n1 (some centres unmarked) [Compound 11] | significantly inhibited the growth
